Measured values from US20250034135A1, “ANTI-APOPTOTIC PROTEIN BCL-2 INHIBITOR, PHARMACEUTICAL COMPOSITION AND USES THEREOF” (HANGZHOU HEALZEN THERAPEUTICS CO., LTD., priority 2021, published 2025).

These compounds were tested against BCL2 (Homo sapiens (Human), UniProt P10415) (assay: Molecular level activity test of anti-apoptotic protein BCL2 (HTRF, binding to Bim peptide)). Details: HTRF, binding of BCL2 to Bim peptide; read-out: BCL2 nM (inhibitory activity, IC50).
How it was run: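 Competition binding format: recombinant His-BCL2 and a biotin-Bim peptide are incubated with compound for 1 h, followed by 4 h at room temperature with HTRF detection antibodies.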

Chain of BCL2 (P10415 whole entry): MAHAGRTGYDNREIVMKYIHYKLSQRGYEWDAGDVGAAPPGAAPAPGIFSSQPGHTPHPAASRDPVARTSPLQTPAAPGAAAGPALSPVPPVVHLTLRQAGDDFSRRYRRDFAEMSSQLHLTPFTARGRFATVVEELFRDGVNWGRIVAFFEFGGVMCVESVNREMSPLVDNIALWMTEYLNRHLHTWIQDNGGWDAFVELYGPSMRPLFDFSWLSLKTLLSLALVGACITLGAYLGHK

Compound	IC50 [nM]
CC(C)c1ccccc1[C@@H]1CCCN1C1CC2(CCN(c3cc(Oc4cnc5[nH]ccc5c4)c(C(=O)NS(=O)(=O)c4cc([N+](=O)[O-])c(NCC5CCC(N(C)C)CC5)c5[nH]cnc45)cc3F)CC2)C1 (stereo partly drawn) [compound 034, 2-((1H-pyrrolo[2,3-b]pyrid-5-yl)oxy)-N-((7-((((1S,4S)-4-(dimethylamino)cyclohexyl)methyl)amino)-6-nitro-1H-benzo[d]imidazol-4-yl)sulfonyl)-5-fluoro-4-(2-((S)-2-(2-isopropylphenyl)pyrrolidin-1-yl)-7-azaspiro[3.5]non-7-yl)benzamide]	< 10
CC(C)c1ccccc1[C@@H]1CN(Cc2cccc(F)c2F)CCN1C1CC2(CCN(c3cc(Oc4cnc5[nH]ccc5c4)c(C(=O)NS(=O)(=O)c4ccc(NC[C@H]5CC[C@](C)(O)CC5)c([N+](=O)[O-])c4)cc3F)CC2)C1 [compound 218, 2-((1H-pyrrolo[2,3-b]pyrid-5-yl)oxy)-4-(2-((R)-4-(2,3-difluorobenzyl)-2-(2-isopropylphenyl)piperazin-1-yl)-7-azaspiro[3.5]non-7-yl)-5-fluoro-N-((4-((((1r, 4r)-4-hydroxy-4-methylcyclohexyl)methyl)amino)-3-nitrophenyl)sulfonyl)benzamide]	< 10
CC(C)c1ccccc1C1CN(C2CCOCC2)CCN1C1CC2(C1)CN(c1cc(Oc3cnc4[nH]ccc4c3)c(C(=O)NS(=O)(=O)c3ccc(NC[C@H]4CC[C@](C)(O)CC4)c([N+](=O)[O-])c3)cn1)C2 (some centres unmarked) [compound 052, 4-((1H-pyrrolo[2,3-b]pyrid-5-yl)oxy)-N-((4-((((1r,4r)-4-hydroxy-4-methylcyclohexyl)methyl)amino)-3-nitrophenyl)sulfonyl)-6-(6-(2-(2-isopropylphenyl)-4-(tetrahydro-2H-pyran-4-yl)piperazin-1-yl)-2-azaspiro[3.3]hept-2-yl) nicotinamide]	< 10
COc1ccc(CN2CCN(C3CC4(CCN(c5ccc(C(=O)NS(=O)(=O)c6cc([N+](=O)[O-])c(NCC7(F)CCN(C(C)C)CC7)c7[nH]cnc67)c(Oc6cnc7[nH]cc(F)c7c6)c5)CC4)C3)C(c3ccccc3C(C)C)C2)cc1 (centres unmarked) [compound 050]	< 10

Now from value to compound:

IC50 [nM]	Compound
< 10	COc1cc(CN2CCN(C3CC4(CCN(c5ccc(C(=O)NS(=O)(=O)c6cc([N+](=O)[O-])c(NCC7(F)CCOCC7)c7c6OCO7)c(Oc6cnc7[nH]ccc7c6)c5)CC4)C3)[C@H](c3ccccc3C(C)C)C2)cc2cc(C)oc12 [compound 171, (R)-2-((1H-pyrrolo[2,3-b]pyrid-5-yl)oxy)-N-((7-(((4-fluorotetrahydro-2H-pyran-4-yl)methyl)amino)-6-nitrobenzo[d][1,3]dioxocyclopent-4-yl)sulfonyl)-4-(2-(2-(2-isopropylphenyl)-4-((7-methoxy-2-methylbenzofuran-5-yl)methyl)piperazin-1-yl)-7-azaspiro[3.5]non-7-yl)benzamide]
< 10	COc1ccc(CN2CCN(C3CC4(CCN(c5cc(Oc6cnc7[nH]ccc7c6)c(C(=O)NS(=O)(=O)c6ccc(NC[C@H]7CC[C@](C)(O)CC7)c([N+](=O)[O-])c6)cc5F)CC4)C3)[C@H](c3ccccc3C(C)C)C2)c2c1OCO2 [compound 223, 2-((1H-pyrrolo[2,3-b]pyrid-5-yl)oxy)-5-fluoro-N-((4-((((1r, 4r)-4-hydroxy-4-methylcyclohexyl)methyl)amino)-3-nitrophenyl)sulfonyl)-4-(2-((R)-2-(2-isopropylphenyl)-4-((7-methoxybenzo[d][1,3]dioxycyclopent-4-yl)methyl)piperazin-1-yl)-7-azaspiro[3.5]non-7-yl)benzamide]
< 10	COc1ccc(CN2CCN(C3CC4(CCN(c5ccc(C(=O)NS(=O)(=O)c6cc([N+](=O)[O-])c(NC[C@H]7CC[C@](C)(O)CC7)c7c6OC(C)(C)O7)c(Oc6cnc7[nH]ccc7c6)c5)CC4)C3)[C@H](c3ccccc3C(C)C)C2)cc1 [compound 163, 2-((1H-pyrrolo[2,3-b]pyrid-5-yl)oxy)-N-((7-((((1r, 4r)-4-hydroxy-4-methylcyclohexyl)methyl)amino)-2,2-dimethyl-6-nitrobenzo[d][1,3]dioxocyclopent-4-yl)sulfonyl)-4-(2-((R)-2-(2-isopropylphenyl)-4-(4-methoxybenzyl)piperazin-1-yl)-7-azaspiro[3.5]non-7-yl)benzamide]
< 10	COc1cc(CN2CCN(C3CC4(CCN(c5cc(Oc6cnc7[nH]ccc7c6)c(C(=O)NS(=O)(=O)c6ccc(NC[C@H]7CC[C@](C)(O)CC7)c([N+](=O)[O-])c6)cc5F)CC4)C3)[C@H](c3ccccc3C(C)C)C2)cc2cc(C)oc12 [compound 225, 2-((1H-pyrrolo[2,3-b]pyrid-5-yl)oxy)-5-fluoro-N-((4-((((1r, 4r)-4-hydroxy-4-methylcyclohexyl)methyl)amino)-3-nitrophenyl)sulfonyl)-4-(2-((R)-2-(2-isopropylphenyl)-4-((7-methoxy-2-methylbenzofuran-5-yl)methyl)piperazin-1-yl)-7-azaspiro[3.5]non-7-yl)benzamide]
< 10	COc1ccc(CN2CCN(C3CC4(CCN(c5cc(Oc6cnc7[nH]ccc7c6)c(C(=O)NS(=O)(=O)c6cc([N+](=O)[O-])c(NCC7(F)CCOCC7)c7c6OCO7)cc5F)CC4)C3)[C@H](c3ccccc3C(C)C)C2)c(F)n1 [compound 130, (R)-2-((1H-pyrrolo[2,3-b]pyrid-5-yl)oxy)-5-fluoro-4-(2-(4-((2-fluoro-6-methoxypyrid-3-yl)methyl)-2-(2-isopropylphenyl)piperazin-1-yl)-7-azaspiro[3.5]non-7-yl)-N-((7-(((4-fluorotetrahydro-2H-pyran-4-yl)methyl)amino)-6-nitrobenzo[d][1,3]dioxocyclopent-4-yl)sulfonyl)benzamide]
< 10	COc1ccc(CN2CCN(C3CC4(CCN(c5ccc(C(=O)NS(=O)(=O)c6cc([N+](=O)[O-])c(NC[C@H]7CC[C@](C)(O)CC7)c7[nH]cnc67)c(Oc6cnc7[nH]ccc7c6)c5)CC4)C3)C(c3ccccc3C(C)C)C2)cn1 (some centres unmarked) [compound 045, 2-((1H-pyrrolo[2,3-b]pyrid-5-yl)oxy)-N-((7-((((1r,4r)-4-hydroxy-4-methylcyclohexyl)methyl)amino)-6-nitro-1H-benzo[d]imidazol-4-yl)sulfonyl)-4-(2-(2-(2-isopropylphenyl)-4-((6-methoxypyrid-3-yl)methyl)piperazin-1-yl)-7-azaspiro[3.5]non-7-yl)benzamide]
< 10	COc1ccc(CN2CCN(C3CC4(CCN(c5cc(Oc6cnc7[nH]ccc7c6)c(C(=O)NS(=O)(=O)c6cc([N+](=O)[O-])c(NC[C@H]7CC[C@](C)(O)CC7)c7c6OCO7)cn5)CC4)C3)[C@H](c3ccccc3C(C)C)C2)cc1 [compound 137, 4-((1H-pyrrolo[2,3-b]pyrid-5-yl)oxy)-N-((7-((((1r, 4r)-4-hydroxy-4-methylcyclohexyl)methyl)amino)-6-nitrobenzo[d][1,3]dioxocyclopent-4-yl)sulfonyl)-6-(2-((R)-2-(2-isopropylphenyl)-4-(4-methoxybenzyl)piperazin-1-yl)-7-azaspiro[3.5]non-7-yl) nicotinamide]
